In PubChem BioAssay (NCI):
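In this assay, cells in 96-well plates receive the compound at five concentrations for 48 hours. Endpoints are linearly interpolated between the surrounding concentrations. GI50 is the concentration that inhibits growth by half. At the TGI there is no net growth.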

Key:
Test in all cases: NCI anticancer screen, dose series, 48 h
[1] = tested on: LOX IMVI melanoma
[2] = tested on: KM12 colon
[3] = tested on: SN12C renal
[4] = tested on: RPMI-8226 leukemia
[5] = tested on: MALME-3M melanoma
[6] = tested on: T-47D breast
[7] = tested on: SK-MEL-5 melanoma
[8] = tested on: NCI/ADR-RES ovarian
[9] = tested on: PC-3 prostate
[10] = tested on: IGROV1 ovarian
[11] = tested on: UO-31 renal
[12] = tested on: MDA-MB-435
[13] = tested on: HT29 colon
[14] = tested on: SF-268 CNS
[15] = tested on: OVCAR-8 ovarian
[16] = tested on: HCT-116 colon
[17] = tested on: SW-620 colon
[18] = tested on: UACC-62 melanoma
[19] = tested on: SK-OV-3 ovarian
[20] = tested on: SF-539 CNS
[21] = tested on: DU-145 prostate
[22] = tested on: ACHN renal
[23] = tested on: A549 NSCLC
[24] = tested on: 786-0 renal
[25] = tested on: CAKI-1 renal
[26] = tested on: SNB-75 CNS
[27] = tested on: COLO 205 colon
[28] = tested on: BT-549 breast
[29] = tested on: TK-10 renal
[30] = tested on: HL-60(TB) leukemia
[31] = tested on: EKVX NSCLC
[32] = tested on: SNB-19 CNS
[33] = tested on: M14 melanoma
[34] = tested on: MCF7 breast
[35] = tested on: NCI-H460 lung
[36] = tested on: A498 renal
[37] = tested on: U251 CNS
[38] = tested on: MDA-MB-231 breast
[39] = tested on: HS 578T breast
[40] = tested on: RXF 393 renal
[41] = tested on: K-562 leukemia
[42] = tested on: HOP-62 NSCLC
[43] = tested on: HCT-15 colon
[44] = tested on: SK-MEL-2 melanoma
[45] = tested on: MOLT-4 leukemia
[46] = tested on: OVCAR-5 ovarian
[47] = tested on: OVCAR-3 ovarian
[48] = tested on: SK-MEL-28 melanoma
[49] = tested on: SF-295 CNS
[50] = tested on: HCC-2998 colon
[51] = tested on: NCI-H522 lung
[52] = tested on: OVCAR-4 ovarian

Compound Fc1ccc(-c2ncn(C3CCNCC3)c2-c2ccnc(Oc3cccc(C(F)(F)F)c3)n2)cc1 has a GI50 [1] of 8.96 µM, a TGI [1] of 14.1 µM and a GI50 [2] of 3.93 µM. For the same compound, the TGI [2] was 7.36 µM, the GI50 [3] was 3.93 µM and the TGI [3] was 7.47 µM. For the same compound, the GI50 [4] was 4.87 µM, the TGI [4] was 11.7 µM and the GI50 [5] was 4.66 µM. The TGI [5] was 10.1 µM, the GI50 [6] was 2.93 µM and the TGI [6] was 6.43 µM. For the same compound, the GI50 [7] was 3.28 µM, the TGI [7] was 6.5 µM and the GI50 [8] was 4.27 µM. The TGI [8] was 9.03 µM, the GI50 [9] was 3.7 µM and the TGI [9] was 7.2 µM. For the same compound, the GI50 [10] was 3.67 µM, the TGI [10] was 7.88 µM and the GI50 [11] was 2.8 µM. For the same compound, the TGI [11] was 6.41 µM, the GI50 [12] was 3.99 µM and the TGI [12] was 8.15 µM. It also gave a GI50 [13] of 2.54 µM, a TGI [13] of 5.54 µM and a GI50 [14] of 3.64 µM. For the same compound, the TGI [14] was 7.37 µM, the GI50 [15] was 4.17 µM and the TGI [15] was 8.58 µM. It also gave a GI50 [16] of 3.65 µM, a TGI [16] of 7.29 µM and a GI50 [17] of 3.56 µM. For the same compound, the TGI [17] was 7.03 µM, the GI50 [18] was 4.05 µM and the TGI [18] was 7.59 µM. The GI50 [19] was 3.82 µM, the TGI [19] was 7.31 µM and the GI50 [20] was 3.92 µM. For the same compound, the TGI [20] was 7.68 µM, the GI50 [21] was 3.99 µM and the TGI [21] was 7.37 µM. For the same compound, the GI50 [22] was 3.29 µM, the TGI [22] was 6.47 µM and the GI50 [23] was 4.23 µM. It also gave a TGI [23] of 7.94 µM, a GI50 [24] of 3.82 µM and a TGI [24] of 7.49 µM. The GI50 [25] was 4.38 µM, the TGI [25] was 9.12 µM and the GI50 [26] was 2.01 µM. For the same compound, the TGI [26] was 6.52 µM, the GI50 [27] was 3.83 µM and the TGI [27] was 7.45 µM. For the same compound, the GI50 [28] was 4.34 µM, the TGI [28] was 9.51 µM and the GI50 [29] was 3.68 µM. For the same compound, the TGI [29] was 7.22 µM, the GI50 [30] was 4.58 µM and the TGI [30] was 9.6 µM. The GI50 [31] was 3.63 µM, the TGI [31] was 8.3 µM and the GI50 [32] was 3.94 µM. For the same compound, the TGI [32] was 7.67 µM, the GI50 [33] was 4.54 µM and the TGI [33] was 8.73 µM. It also gave a GI50 [34] of 3.68 µM, a TGI [34] of 7.3 µM and a GI50 [35] of 3.82 µM. For the same compound, the TGI [35] was 7.81 µM, the GI50 [36] was 1.37 µM and the TGI [36] was 6.91 µM. The GI50 [37] was 3.61 µM, the TGI [37] was 7.08 µM and the GI50 [38] was 3.96 µM. For the same compound, the TGI [38] was 7.56 µM, the GI50 [39] was 1.98 µM and the TGI [39] was 7.07 µM. For the same compound, the GI50 [40] was 2.66 µM, the TGI [40] was 6.42 µM and the GI50 [41] was 3.8 µM. For the same compound, the TGI [41] was 9.12 µM, the GI50 [42] was 3.75 µM and the TGI [42] was 7.47 µM. It also gave a GI50 [43] of 3.79 µM, a TGI [43] of 7.25 µM and a GI50 [44] of 4.62 µM. The TGI [44] was 8.84 µM, the GI50 [45] was 4.15 µM and the TGI [45] was 9.48 µM. For the same compound, the GI50 [46] was 3.21 µM, the TGI [46] was 6.37 µM and the GI50 [47] was 3.88 µM. It also gave a TGI [47] of 7.26 µM, a GI50 [48] of 3.62 µM and a TGI [48] of 6.93 µM. It also gave a GI50 [49] of 3.92 µM, a TGI [49] of 8.1 µM and a GI50 [50] of 3.92 µM. It also gave a TGI [50] of 8.35 µM, a GI50 [51] of 4.03 µM and a TGI [51] of 7.95 µM. The GI50 [52] was 3.62 µM and the TGI [52] was 7.26 µM.
